Reference: the CheMixHub viscosity set

Test: xn = mol fraction of the nth substance listed

CC(=O)CC(C)=O + CCCC(C)O
298.15 K, 101 kPa
Details | viscosity [mPa·s]
x1 = 0.1 | 2.324
x1 = 0.2 | 1.65
x1 = 0.3 | 1.276
x1 = 0.4 | 1.082
x1 = 0.5 | 0.983
x1 = 0.6 | 0.918
x1 = 0.7 | 0.855
x1 = 0.8 | 0.787
x1 = 0.9 | 0.725

CCCCN(CCCC)CCCC + CCCCCC
viscosity [mPa·s], 101 kPa
Details | x1 = 0.0982 | x1 = 0.1945 | x1 = 0.3994 | x1 = 0.495 | x1 = 0.5384 | x1 = 0.7924 | x1 = 0.903
303.15 K | 0.3305 | 0.3909 | 0.5434 | 0.623 | 0.6623 | 0.923 | 1.05
313.15 K | 0.289 | 0.3449 | 0.4813 | 0.5536 | 0.588 | 0.8088 | 0.91

Cc1ccc(C(C)C)cc1 + CCCCCC
298.15 K, 101.33 kPa
Details | viscosity [mPa·s]
x2 = 0.0316 | 0.768
x2 = 0.0656 | 0.745
x2 = 0.0967 | 0.723
x2 = 0.1908 | 0.662
x2 = 0.2812 | 0.599
x2 = 0.3795 | 0.538
x2 = 0.5183 | 0.474
x2 = 0.6271 | 0.424
x2 = 0.7093 | 0.393
x2 = 0.8209 | 0.349
x2 = 0.9331 | 0.314

CCCCN(CCCC)CCCC + CCCCCCCC
viscosity [mPa·s], 101 kPa
Details | x1 = 0.0983 | x1 = 0.1934 | x1 = 0.395 | x1 = 0.4909 | x1 = 0.5915 | x1 = 0.7854 | x1 = 0.897
303.15 K | 0.532 | 0.5833 | 0.7038 | 0.7674 | 0.838 | 0.9861 | 1.079
313.15 K | 0.4675 | 0.5129 | 0.6183 | 0.6727 | 0.734 | 0.8553 | 0.9291

CCCCC(C)O (centres undefined) + CCCCCCCCCCCC
298.15 K, 101 kPa
Details | viscosity [mPa·s]
x2 = 0.0555 | 3.6
x2 = 0.0999 | 3.24
x2 = 0.1555 | 2.84
x2 = 0.1999 | 2.55
x2 = 0.2554 | 2.24
x2 = 0.2999 | 2.01
x2 = 0.3555 | 1.77
x2 = 0.3998 | 1.6
x2 = 0.4555 | 1.42
x2 = 0.4999 | 1.31
x2 = 0.5554 | 1.19
x2 = 0.5998 | 1.12
x2 = 0.6554 | 1.05
x2 = 0.6999 | 1.02
x2 = 0.7555 | 1
x2 = 0.7997 | 1
x2 = 0.8555 | 1.02
x2 = 0.8998 | 1.04
x2 = 0.9555 | 1.09

CCCCCCc1ccccc1 + CCCCCCCCCCCCCCCC
viscosity [mPa·s], 102 kPa
Details | x1 = 0.1344 | x1 = 0.259 | x1 = 0.3742 | x1 = 0.4819 | x1 = 0.5823 | x1 = 0.6747 | x1 = 0.765 | x1 = 0.848 | x1 = 0.9262
293.15 K | 3.12 | 2.85 | 2.63 | 2.43 | 2.25 | 2.11 | 1.98 | 1.86 | 1.77
303.15 K | 2.49 | 2.3 | 2.13 | 1.98 | 1.85 | 1.74 | 1.64 | 1.55 | 1.47
313.15 K | 2.04 | 1.9 | 1.76 | 1.65 | 1.55 | 1.46 | 1.38 | 1.31 | 1.25
323.15 K | 1.7 | 1.59 | 1.49 | 1.4 | 1.32 | 1.25 | 1.18 | 1.13 | 1.08

CCCCN(CCCC)CCCC + CCCCCCCCCCO
viscosity [mPa·s], 101.3 kPa
Details | x1 = 0.0952 | x1 = 0.1901 | x1 = 0.2866 | x1 = 0.3816 | x1 = 0.5195 | x1 = 0.6185 | x1 = 0.7198 | x1 = 0.8029 | x1 = 0.9006
303.15 K | 7.192 | 5.845 | 4.754 | 3.874 | 2.91 | 2.358 | 1.928 | 1.658 | 1.378
313.15 K | 5.659 | 4.596 | 3.721 | 3.026 | 2.288 | 1.892 | 1.586 | 1.388 | 1.175

CCCCOC(=O)c1ccccc1C(=O)OCCCC + CCCCCCCCCCO
303.15 K, 101.33 kPa
Details | viscosity [mPa·s]
x1 = 0.1004 | 8.572
x1 = 0.1995 | 8.061
x1 = 0.3035 | 7.851
x1 = 0.4004 | 7.91
x1 = 0.4902 | 8.075
x1 = 0.5977 | 8.479
x1 = 0.6985 | 9.095
x1 = 0.7997 | 9.985
x1 = 0.8948 | 11.18

O=C1c2ccccc2C(=O)C1(O)O + CCCCCCCCCO
101.3 kPa, x1 = 0.25
Details | viscosity [mPa·s]
293.15 K | 38.14
298.15 K | 27.87
303.15 K | 21.73
308.15 K | 17.37
313.15 K | 13.74
318.15 K | 11.01
323.15 K | 9.139

CCCCN(CCCC)CCCC + CCCCCCCCO
viscosity [mPa·s], 101.3 kPa
Details | x1 = 0.0904 | x1 = 0.1906 | x1 = 0.2864 | x1 = 0.4192 | x1 = 0.5184 | x1 = 0.6196 | x1 = 0.7144 | x1 = 0.8124 | x1 = 0.8987
303.15 K | 5.287 | 4.464 | 3.765 | 2.935 | 2.43 | 2.025 | 1.723 | 1.487 | 1.33
313.15 K | 3.767 | 3.171 | 2.698 | 2.185 | 1.872 | 1.619 | 1.424 | 1.25 | 1.128

CCCCOC(=O)c1ccccc1C(=O)OCCCC + CCCCCCCCO
303.15 K, 101.33 kPa
Details | viscosity [mPa·s]
x1 = 0.1003 | 5.9
x1 = 0.2011 | 5.876
x1 = 0.3001 | 6.078
x1 = 0.3996 | 6.444
x1 = 0.5 | 6.901
x1 = 0.5999 | 7.6
x1 = 0.6958 | 8.396
x1 = 0.7975 | 9.53
x1 = 0.898 | 11.05

C=CC#N + CCCCCCCO
viscosity [mPa·s], 101.33 kPa
Details | x1 = 0.1047 | x1 = 0.206 | x1 = 0.3057 | x1 = 0.4142 | x1 = 0.5106 | x1 = 0.6206 | x1 = 0.7044 | x1 = 0.8027 | x1 = 0.9033
298.15 K | 4.015 | 2.967 | 2.212 | 1.627 | 1.238 | 0.891 | 0.705 | 0.54 | 0.425
303.15 K | 3.469 | 2.587 | 1.958 | 1.441 | – | 0.815 | 0.652 | 0.508 | 0.403
308.15 K | 3 | 2.273 | 1.73 | 1.296 | 1.013 | 0.75 | 0.605 | 0.478 | 0.383

CCCCN(CCCC)CCCC + CCCCCCCO
viscosity [mPa·s], 101.3 kPa
Details | x1 = 0.1067 | x1 = 0.1877 | x1 = 0.2841 | x1 = 0.4197 | x1 = 0.5183 | x1 = 0.619 | x1 = 0.7191 | x1 = 0.8008 | x1 = 0.89
303.15 K | 4.133 | 3.677 | 3.178 | 2.558 | 2.191 | 1.881 | 1.644 | 1.482 | 1.328
313.15 K | 3.033 | 2.69 | 2.355 | 1.956 | 1.709 | 1.497 | 1.33 | 1.217 | 1.1

C=CC#N + CCCCCCO
viscosity [mPa·s], 101.33 kPa
Details | x1 = 0.1023 | x1 = 0.2036 | x1 = 0.3089 | x1 = 0.4105 | x1 = 0.5081 | x1 = 0.6117 | x1 = 0.7084 | x1 = 0.8056 | x1 = 0.9019
298.15 K | 3.139 | 2.308 | 1.705 | 1.3 | 1.006 | 0.774 | 0.617 | 0.495 | 0.41
303.15 K | 2.727 | 2.03 | 1.522 | 1.175 | 0.916 | 0.712 | 0.571 | 0.466 | 0.388
308.15 K | 2.38 | 1.799 | 1.365 | 1.063 | 0.84 | 0.661 | 0.533 | 0.439 | 0.37

CC(=O)CC(C)=O + CCCCCO
298.15 K, 101 kPa
Details | viscosity [mPa·s]
x1 = 0.1 | 2.509
x1 = 0.2 | 1.944
x1 = 0.3 | 1.55
x1 = 0.4 | 1.263
x1 = 0.5 | 1.05
x1 = 0.6 | 0.897
x1 = 0.7 | 0.796
x1 = 0.8 | 0.743
x1 = 0.9 | 0.722
